Test results taken from the supplement of paper PMC11061612.

Legend:
[1] = tested on: KATOIII (Gastric Carcinoma); experiment: combination Emax (second highest fraction inhibited in the dose matrix, 72 h); higher = more inhibition; extreme values may be limits of the assay
Summary of the method: (§1)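 After 24 hours at 37°C and 5% CO2 in 1536-well plates, cells in DMEM/F12 or RPMI plus 10% FBS received two-drug dose matrices for 72 hours. Viability came from CellTiter-Glo 2.0 luminescence and was scaled as inhibition, anchored at 0 by vehicle wells and at 1 by blank wells. Combination Emax is taken as the second-highest inhibition in the matrix, and Bliss excess as the observed combination effect less EA + EB − EA·EB, with EA and EB the single-agent effects.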

[2] = tested on: ES7 (Ewing's Sarcoma); experiment: as above
Summary of the method: as §1

SMILES | combination Emax [1] | combination Emax [2]
CC1(C)CCC(CN2CCN(c3ccc(C(=O)NS(=O)(=O)c4ccc(NCC5CCOCC5)c([N+](=O)[O-])c4)c(Oc4cnc5[nH]ccc5c4)c3)CC2)=C(c2ccc(Cl)cc2)C1 [Venetoclax] + COc1cc(Nc2ncc3c(n2)-c2ccc(Cl)cc2C(c2c(F)cccc2OC)=NC3)ccc1C(=O)O [Alisertib] (first compound max 1 µM, 7x7, partner max 10 µM) | 0.681 | 0.917
CN(CCO)CC[C@H](CSc1ccccc1)Nc1ccc(S(=O)(=O)NC(=O)c2ccc(N3CCC([C@@H](O)c4ccccc4-c4ccc(Cl)cc4)CC3)cc2)cc1S(=O)(=O)C(F)(F)F [AZD4320] + C[C@@H]1COCCN1C2=NC(=NC(=C2)C3(CC3)[S@](=N)(=O)C)C4=C5C=CNC5=NC=C4 [AZD6738] (first compound max 1 µM, 7x7, partner max 10 µM) | 0.474 | 1
CC1(C)CCC(CN2CCN(c3ccc(C(=O)NS(=O)(=O)c4ccc(NCC5CCOCC5)c([N+](=O)[O-])c4)c(Oc4cnc5[nH]ccc5c4)c3)CC2)=C(c2ccc(Cl)cc2)C1 [Venetoclax] + C[C@@H](Nc1cc(F)cc(F)c1)c1cc(C(=O)N(C)C)cc2c(=O)cc(N3CCOCC3)oc12 [AZD8186] (first compound max 1 µM, 7x7, partner max 3 µM) | 0.142 | 0.904
CC1(C)CCC(CN2CCN(c3ccc(C(=O)NS(=O)(=O)c4ccc(NCC5CCOCC5)c([N+](=O)[O-])c4)c(Oc4cnc5[nH]ccc5c4)c3)CC2)=C(c2ccc(Cl)cc2)C1 [Venetoclax] + Cn1cnc2c(F)c(Nc3ccc(Br)cc3Cl)c(C(=O)NOCCO)cc21 [Selumetinib] (first compound max 1 µM, 7x7, partner max 3 µM) | 0.186 | 0.7
Cc1c2c(nn1C)CSCc1cc(n(C)n1)CSc1cc(c3ccccc3c1)OCCCc1c(C(=O)O)n(C)c3c-2c(Cl)ccc13 [AZD5991] + Cn1cnc2c(F)c(Nc3ccc(Br)cc3Cl)c(C(=O)NOCCO)cc21 [Selumetinib] (first compound max 1 µM, 7x7, partner max 3 µM) | 0.178 | 0.759
Cc1c2c(nn1C)CSCc1cc(n(C)n1)CSc1cc(c3ccccc3c1)OCCCc1c(C(=O)O)n(C)c3c-2c(Cl)ccc13 [AZD5991] + C[C@@H]1COCCN1C2=NC(=NC(=C2)C3(CC3)[S@](=N)(=O)C)C4=C5C=CNC5=NC=C4 [AZD6738] (first compound max 1 µM, 7x7, partner max 10 µM) | 0.373 | 0.852
CC1(C)CCC(CN2CCN(c3ccc(C(=O)NS(=O)(=O)c4ccc(NCC5CCOCC5)c([N+](=O)[O-])c4)c(Oc4cnc5[nH]ccc5c4)c3)CC2)=C(c2ccc(Cl)cc2)C1 [Venetoclax] + C=CCn1c(=O)c2cnc(Nc3ccc(N4CCN(C)CC4)cc3)nc2n1-c1cccc(C(C)(C)O)n1 [AZD1775] (first compound max 1 µM, partner max 1 µM) | 0.382 | 0.888
CN(CCO)CC[C@H](CSc1ccccc1)Nc1ccc(S(=O)(=O)NC(=O)c2ccc(N3CCC([C@@H](O)c4ccccc4-c4ccc(Cl)cc4)CC3)cc2)cc1S(=O)(=O)C(F)(F)F [AZD4320] + Cc1cc2ncnn2cc1Nc1ncc2c(n1)n(C1CCOCC1)c(=O)n2C [AZD7648] (first compound max 1 µM, 7x7, partner max 10 µM) | 0.151 | 0.804
CN(CCO)CC[C@H](CSc1ccccc1)Nc1ccc(S(=O)(=O)NC(=O)c2ccc(N3CCC([C@@H](O)c4ccccc4-c4ccc(Cl)cc4)CC3)cc2)cc1S(=O)(=O)C(F)(F)F [AZD4320] + C=CCn1c(=O)c2cnc(Nc3ccc(N4CCN(C)CC4)cc3)nc2n1-c1cccc(C(C)(C)O)n1 [AZD1775] (first compound max 1 µM, partner max 1 µM) | 0.206 | 0.935
CC1(C)CCC(CN2CCN(c3ccc(C(=O)NS(=O)(=O)c4ccc(NCC5CCOCC5)c([N+](=O)[O-])c4)c(Oc4cnc5[nH]ccc5c4)c3)CC2)=C(c2ccc(Cl)cc2)C1 [Venetoclax] + C[C@@H]1COCCN1C2=NC(=NC(=C2)C3(CC3)[S@](=N)(=O)C)C4=C5C=CNC5=NC=C4 [AZD6738] (first compound max 1 µM, 7x7, partner max 10 µM) | 0.462 | 0.941
CC1(C)CCC(CN2CCN(c3ccc(C(=O)NS(=O)(=O)c4ccc(NCC5CCOCC5)c([N+](=O)[O-])c4)c(Oc4cnc5[nH]ccc5c4)c3)CC2)=C(c2ccc(Cl)cc2)C1 [Venetoclax] + Cc1cc2ncnn2cc1Nc1ncc2c(n1)n(C1CCOCC1)c(=O)n2C [AZD7648] (first compound max 1 µM, 7x7, partner max 10 µM) | 0.214 | 0.714
CC1(C)CCC(CN2CCN(c3ccc(C(=O)NS(=O)(=O)c4ccc(NCC5CCOCC5)c([N+](=O)[O-])c4)c(Oc4cnc5[nH]ccc5c4)c3)CC2)=C(c2ccc(Cl)cc2)C1 [Venetoclax] + CCN(CCO)CCCOc1ccc2c(Nc3cc(CC(=O)Nc4cccc(F)c4)[nH]n3)ncnc2c1 [AZD2811] (first compound max 1 µM, 7x7, partner max 1 µM) | 0.17 | 0.911
Cc1c2c(nn1C)CSCc1cc(n(C)n1)CSc1cc(c3ccccc3c1)OCCCc1c(C(=O)O)n(C)c3c-2c(Cl)ccc13 [AZD5991] + C1CN(CCC1(C(=O)N[C@@H](CCO)C2=CC=C(C=C2)Cl)N)C3=NC=NC4=C3C=CN4 [Capivasertib] (first compound max 1 µM, 7x7, partner max 3 µM) | 0.233 | 0.825
Cc1c2c(nn1C)CSCc1cc(n(C)n1)CSc1cc(c3ccccc3c1)OCCCc1c(C(=O)O)n(C)c3c-2c(Cl)ccc13 [AZD5991] + CN(C)CCCOc1ccc(-c2ccc3ncc4c(c3c2)n(C2CCOCC2)c(=O)n4C)cn1 [AZD0156] (first compound max 1 µM, 7x7, partner max 1 µM) | 0.182 | 0.726
CN(CCO)CC[C@H](CSc1ccccc1)Nc1ccc(S(=O)(=O)NC(=O)c2ccc(N3CCC([C@@H](O)c4ccccc4-c4ccc(Cl)cc4)CC3)cc2)cc1S(=O)(=O)C(F)(F)F [AZD4320] + C1CN(CCC1(C(=O)N[C@@H](CCO)C2=CC=C(C=C2)Cl)N)C3=NC=NC4=C3C=CN4 [Capivasertib] (first compound max 1 µM, 7x7, partner max 3 µM) | 0.128 | 0.762
CN(CCO)CC[C@H](CSc1ccccc1)Nc1ccc(S(=O)(=O)NC(=O)c2ccc(N3CCC([C@@H](O)c4ccccc4-c4ccc(Cl)cc4)CC3)cc2)cc1S(=O)(=O)C(F)(F)F [AZD4320] + Cn1cnc2c(F)c(Nc3ccc(Br)cc3Cl)c(C(=O)NOCCO)cc21 [Selumetinib] (first compound max 1 µM, 7x7, partner max 3 µM) | 0.29 | 0.984
CN(CCO)CC[C@H](CSc1ccccc1)Nc1ccc(S(=O)(=O)NC(=O)c2ccc(N3CCC([C@@H](O)c4ccccc4-c4ccc(Cl)cc4)CC3)cc2)cc1S(=O)(=O)C(F)(F)F [AZD4320] + C[C@@H](Nc1cc(F)cc(F)c1)c1cc(C(=O)N(C)C)cc2c(=O)cc(N3CCOCC3)oc12 [AZD8186] (first compound max 1 µM, 7x7, partner max 3 µM) | 0.135 | 0.991
Cc1c2c(nn1C)CSCc1cc(n(C)n1)CSc1cc(c3ccccc3c1)OCCCc1c(C(=O)O)n(C)c3c-2c(Cl)ccc13 [AZD5991] + C[C@@H](Nc1cc(F)cc(F)c1)c1cc(C(=O)N(C)C)cc2c(=O)cc(N3CCOCC3)oc12 [AZD8186] (first compound max 1 µM, 7x7, partner max 3 µM) | 0.175 | 0.95
Cc1c2c(nn1C)CSCc1cc(n(C)n1)CSc1cc(c3ccccc3c1)OCCCc1c(C(=O)O)n(C)c3c-2c(Cl)ccc13 [AZD5991] + C=CCn1c(=O)c2cnc(Nc3ccc(N4CCN(C)CC4)cc3)nc2n1-c1cccc(C(C)(C)O)n1 [AZD1775] (first compound max 1 µM, partner max 1 µM) | 0.237 | 0.732
CC(=O)Nc1cccc(-n2c(=O)n(C3CC3)c(=O)c3c(Nc4ccc(I)cc4F)n(C)c(=O)c(C)c32)c1 [Trametinib] + Cc1nc(-c2cn3c(n2)-c2ccc(-c4cnn(C(C)(C)C(N)=O)c4)cc2OCC3)n(C(C)C)n1 [Taselisib] (first compound max 1 µM, 7x7, partner max 10 µM) | 0.793 | 0.673
CN(CCO)CC[C@H](CSc1ccccc1)Nc1ccc(S(=O)(=O)NC(=O)c2ccc(N3CCC([C@@H](O)c4ccccc4-c4ccc(Cl)cc4)CC3)cc2)cc1S(=O)(=O)C(F)(F)F [AZD4320] + CCN(CCO)CCCOc1ccc2c(Nc3cc(CC(=O)Nc4cccc(F)c4)[nH]n3)ncnc2c1 [AZD2811] (first compound max 1 µM, 7x7, partner max 1 µM) | 0.0347 | 1
CN(CCO)CC[C@H](CSc1ccccc1)Nc1ccc(S(=O)(=O)NC(=O)c2ccc(N3CCC([C@@H](O)c4ccccc4-c4ccc(Cl)cc4)CC3)cc2)cc1S(=O)(=O)C(F)(F)F [AZD4320] + CN(C)CCCOc1ccc(-c2ccc3ncc4c(c3c2)n(C2CCOCC2)c(=O)n4C)cn1 [AZD0156] (first compound max 1 µM, 7x7, partner max 1 µM) | 0.0663 | 0.747
CC1(C)CCC(CN2CCN(c3ccc(C(=O)NS(=O)(=O)c4ccc(NCC5CCOCC5)c([N+](=O)[O-])c4)c(Oc4cnc5[nH]ccc5c4)c3)CC2)=C(c2ccc(Cl)cc2)C1 [Venetoclax] + C1CN(CCC1(C(=O)N[C@@H](CCO)C2=CC=C(C=C2)Cl)N)C3=NC=NC4=C3C=CN4 [Capivasertib] (first compound max 1 µM, 7x7, partner max 3 µM) | 0.254 | 0.8
Cc1c2c(nn1C)CSCc1cc(n(C)n1)CSc1cc(c3ccccc3c1)OCCCc1c(C(=O)O)n(C)c3c-2c(Cl)ccc13 [AZD5991] + CCN(CCO)CCCOc1ccc2c(Nc3cc(CC(=O)Nc4cccc(F)c4)[nH]n3)ncnc2c1 [AZD2811] (first compound max 1 µM, 7x7, partner max 1 µM) | 0.116 | 0.95
